PubChem BioAssay (NCI)
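Cultured in 96-well plates, cells were exposed to test compound for 48 hours across five concentrations. Here, GI50 denotes the concentration required for 50% inhibition of growth. TGI: concentration producing complete growth inhibition.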

Tests used:
Experiment in all cases: NCI tumour cell line growth inhibition, 48 h
[1] = tested on: TK-10 renal
[2] = tested on: NCI-H460 lung
[3] = tested on: PC-3 prostate
[4] = tested on: OVCAR-3 ovarian
[5] = tested on: HCT-116 colon
[6] = tested on: KM12 colon
[7] = tested on: 786-0 renal
[8] = tested on: HOP-62 NSCLC
[9] = tested on: HCT-15 colon
[10] = tested on: MDA-MB-435

Row | SMILES | GI50 [1] [µM] | TGI [1] [µM] | GI50 [2] [µM] | TGI [2] [µM] | GI50 [3] [µM] | TGI [3] [µM] | GI50 [4] [µM] | TGI [4] [µM] | GI50 [5] [µM] | TGI [5] [µM] | GI50 [6] [µM] | TGI [6] [µM] | GI50 [7] [µM] | TGI [7] [µM] | GI50 [8] [µM] | TGI [8] [µM] | GI50 [9] [µM] | TGI [9] [µM] | GI50 [10] [µM] | TGI [10] [µM]
1 | CCOc1cccc(-c2nc(N)nc(Nc3ccccc3SSc3ccccc3Nc3nc(N)nc(-c4cccc(OCC)c4)n3)n2)c1 | 6.26 | 86.8 | 3.03 | > 100 | 0.671 | 15.3 | 5.37 | > 100 | 3.95 | > 100 | 3.53 | > 100 | 5.03 | 69.7 | 1.57 | 4.46 | 2.18 | > 100 | 8.1 | > 100
2 | CS(=O)(=O)CC(=O)c1ccccc1 | – | > 100 | – | > 100 | – | > 100 | – | > 100 | – | > 100 | – | > 100 | – | > 100 | – | > 100 | – | > 100 | – | > 100
3 | NC(N)=N/N=C/c1ccc(-c2ccc(-c3cc(Cl)cc(Cl)c3)s2)cc1 | 1.71 | 3.54 | 1.7 | 3.46 | 1.58 | 3.16 | 1.71 | 3.27 | 1.31 | 2.99 | 1.87 | 3.56 | 1.74 | 3.66 | 1.79 | 4.05 | 1.25 | 2.76 | 1.65 | 3.28
4 | Cc1cc(N(CCCl)CCCl)ccc1C=Nc1ccc2ccccc2c1 | 24.5 | > 100 | 0.485 | > 100 | 17 | > 100 | 14.8 | > 77 | 38 | > 100 | 66.8 | > 100 | 12.7 | > 100 | 25.2 | > 100 | 27.6 | > 100 | 53.3 | > 100
5 | Cn1cc(C2=C(c3cn(C)c4ccccc34)C(=O)NC2=O)c2ccccc21 | 8.75 | > 25 | 1.12 | > 25 | 1.12 | > 25 | 0.646 | > 6.67 | 1.17 | > 25 | 0.948 | > 25 | 1.52 | > 25 | 1.92 | > 25 | 0.729 | > 25 | 0.095 | > 6.61
6 | CC1(C)[C@@H](OC(=O)CCC(=O)O)CC[C@]2(C)[C@H]3C(=O)C=C4[C@@H]5C[C@@](C)(C(=O)O)CC[C@]5(C)CC[C@@]4(C)[C@]3(C)CC[C@@H]12 | 65.6 | 124 | 52.6 | 76 | 56 | 127 | 50.4 | 62.9 | 51.8 | 75.6 | 54.9 | 84.1 | 58.8 | 104 | 53.9 | 79.5 | 51.1 | 78.7 | 58.2 | 98.8
7 | c1ccc2cc(C[n+]3ccn(CCCCCCCCCCn4cc[n+](Cc5ccc6ccccc6c5)c4)c3)ccc2c1 | 3.28 | 16.9 | 0.376 | 10.1 | 1.19 | 7.3 | 1.95 | 7.09 | 1.55 | 15.1 | 0.727 | 2.73 | 5.33 | 32.6 | 1.09 | 7.24 | 3.76 | > 100 | 0.819 | 5.43
8 | O=c1ssc(Cl)c1Cl | – | > 10 | – | > 10 | – | > 10 | – | > 10 | – | > 10 | – | > 10 | – | > 7.05 | – | > 10 | – | > 10 | – | > 10
9 | O=C(c1ccco1)c1c(C(F)(F)F)n([O-])c2ccc(Cl)cc2[n+]1=O | 0.363 | 1.02 | 0.547 | – | 0.294 | 1.07 | 1.11 | 3.92 | 0.0595 | 2.84 | 1.93 | 4.13 | 0.043 | 0.115 | 0.194 | 0.617 | 0.372 | 1.72 | 1.9 | 7.66
10 | CC(C)(C)c1c2c(c(C(C)(C)C)c3c1OCN(Cc1ccccc1)C3)OCN(Cc1ccccc1)C2 | – | 32.5 | – | 28.7 | – | 38 | – | 32.4 | – | 24.4 | – | 57.8 | – | 27.7 | – | 53.5 | – | 33.3 | – | > 100
11 | N#C[Se]CCCNS(=O)(=O)C1CC2C=CC1C2 (centres undefined) | 0.403 | 2.33 | 0.316 | 1.27 | 0.704 | 3.83 | 1.47 | 3.1 | 0.276 | 0.827 | 1.4 | 6.43 | 0.997 | 2.33 | 0.482 | 1.82 | 1.47 | 3.65 | 0.361 | 1.31
12 | CC(=O)OC1CC2C3CCC4C[C@@H](NC(=O)C=C(C)C)CC[C@]4(C)C3CC[C@]2(C)[C@H]1C(C)N(C)C (some centres undefined) | 5.45 | 13.3 | 0.885 | 2.65 | 2.14 | 8.97 | 1.99 | 7.56 | 0.854 | 2.22 | 2.55 | 10.4 | 1.65 | 3.17 | 1.8 | 3.64 | 0.721 | 2.75 | 2.17 | 4.82
13 | CN(C)c1ccc(/C=C/C2=[N+](C)c3ccccc3C2(C)C)cc1 | 1.06 | 32.5 | 0.746 | 10.7 | 0.235 | 13.8 | 0.301 | 12.3 | 0.44 | 20.3 | 0.328 | 5.85 | 2.06 | 18.9 | 0.862 | 13.8 | 2.66 | 18.6 | 0.467 | 11.7
